In publication PMC12557367, ““Precision on Two Wheels”–Structural Refinement of ^64Cu- and ^68Ga-Labeled Bicyclic Peptides Targeting Nectin‑4 for Improved Tumor Imaging: From Preclinical Development to First-in-Human Application” (Journal of Medicinal Chemistry, 2025):
Numbered stars: 1 amine (or outer) side, 2 acyl side, 3 side chain; on linkers, the order of the positions; unused ones are H or OH. Bridge positions count the residues as written; N and C are the ends. Square brackets hold non-standard residues; d marks the D form. Peptide text beside a SMILES is read from it. * marks the point of attachment. TATA = O=C(CC[*:1])N1CN(C(=O)CC[*:2])CN(C(=O)CC[*:3])C1; X1 = O=C(O)CN1CCN(CC(=O)O)CCN([C@H](CCC(=O)*)C(=O)O)CC1; 1Nal = N[C@@H](Cc1cccc2ccccc12)C(=O)O; Hyp = O=C(O)[C@@H]1C[C@@H](O)CN1; hArg = N=C(N)NCCCC[C@H](N)C(=O)O; Met(O) = CS(=O)CC[C@H](N)C(=O)O; Nle = CCCC[C@H](N)C(=O)O

Tests used:
[1] = Small animal PET/CT imaging; set-up: species or system mice; conditions: mouse, in vivo
Procedure: (§1) All animal experiments were performed following the protocols evaluated and approved by the Landesdirektion Sachsen, Referat 25 – Veterinärwesen, Lebensmittelüberwachung and Pharmazie (09105 Chemnitz, Germany, ethics approval number: 25-5131/562/52). HT-1376- and 5637-derived tumor xenograft models were established in NMRI nude mice (Rj: NMRI-Foxn1nu/nu, Charles River Laboratories, Sulzfeld, Germany) by subcutaneous injection of 5 × 10^6 cells in 100 μL of PBS containing 50% (v/v) Matrigel (Corning Life Sciences, Amsterdam, The Netherlands).
(§2) When the tumor volume reached 200 mm^3, PET experiments with radiotracers were performed. Radiolabeling of the ligands was performed as described previously with an apparent molar activity of 25 MBq/nmol. The radioligand stock solution (pH 6.5 – 7.5) was diluted in 0.9% NaCl, and 200 μL containing ∼9 MBq ([…]) was injected per mouse intravenously into a lateral tail vein. For blocking of target-specific radioligand binding, 75 nmol of blocking substance (1d) was administered simultaneously with the radioligand. Coincidences were recorded continuously in a 2 h PET-scan starting with the injection. Additionally, a CT scan was performed for anatomical referencing and attenuation correction. PET/CT imaging, reconstruction, and tissue delineation were carried out as described previously.

[2] = test system: HT-1376-derived tumor xenograft model; assay: Small animal PET/CT imaging; set-up: species or system mice; conditions: mouse, in vivo
Procedure: as §1, §2

[3] = n-Octanol/PBS distribution coefficient (logD 7.4); assay type: physicochemical; conditions: pH 7.4, logD 7.4
Procedure: The determination of logD 7.4 was performed in triplicate. A sample of the ^64Cu/^68Ga-labeled compound containing ≈1 MBq in a volume of 1 μL was added to a 1.5 mL Eppendorf tube containing 400 μL of PBS (pH 7.4) and 400 μL of n-Octanol (the phases were presaturated with each other). The tube was vortexed vigorously for 1 min and then centrifuged at 16,100g for 4 min to separate the phases. For sampling from the aqueous phase, the pipette tip was discharged while passing through the octanol layer. Then, the sample was taken within the aqueous phase. Any residual liquid was carefully removed by moving the tip along the inner wall of an Eppendorf tube. The radioactivity in a defined volume of each layer was measured (ISOMED 2100). The distribution coefficient was expressed as the logarithm of the ratio of counts per minute (cpm) measured in the n-Octanol phase to the cpm measured in the PBS phase.

[4] = Oxidation stability in H2O2 (radio-HPLC)
Procedure: To avoid a too rapid degradation of radiolabeled peptides, a low H2O2 concentration of 0.0012% was chosen. […] In this context, there are three further thioether functionalities in each peptide due to the cyclization of the Cys residues with TATA. In Figure , the curves for the time-dependent degradation of the intact radioligands are depicted, from which the respective half-lives were calculated.
The stability toward oxidizing conditions was assessed with H2O2. For this purpose, the radioligands (2 nmol, 48 μL of labeling mixture) were treated with H2O2 (2 μL of 0.03%, final concentration of 0.0012%) at ambient temperature. At distinct time points (3, 5, and 7 h), an aliquot of 2 μL was withdrawn and diluted with 48 μL of a mixture named “Supersol,” which consists of 20% ethanol, 0.5% Triton X-100, 5 mM EDTA, 0.5 mM o-phenanthroline, and 0.1% saponin. […] The resulting solutions were analyzed by radio-HPLC (same system as that used for analyzing the ^64Cu-labelings).

[5] = target: T1, recombinant human nectin-4 (Homo sapiens, UniProt Q96NY8); assay: FA-based competitive binding assay with probe 1a
T1 construct: close to the value determined for the complete extracellular domain of nectin-4 (0.94 nM); purchased R&D Systems 2659-N4
T1 sequence (Q96NY8 32-349 limits assumed): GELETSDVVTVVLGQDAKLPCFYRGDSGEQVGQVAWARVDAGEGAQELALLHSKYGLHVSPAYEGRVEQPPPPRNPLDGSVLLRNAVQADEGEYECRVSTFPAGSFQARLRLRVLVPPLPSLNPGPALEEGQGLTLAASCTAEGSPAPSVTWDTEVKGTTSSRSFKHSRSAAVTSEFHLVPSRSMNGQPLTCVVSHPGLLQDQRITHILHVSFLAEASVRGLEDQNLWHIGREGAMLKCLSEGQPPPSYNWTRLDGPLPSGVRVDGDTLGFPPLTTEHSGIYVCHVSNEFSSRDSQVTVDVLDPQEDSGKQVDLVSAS
Procedure: For the competitive binding assay, a constant concentration of probe 1a (1 nM) and of nectin-4 (20 nM) was used, and the concentration of the competitors was varied over at least 3 orders of magnitude. […] Analysis of the curves by nonlinear regression according to dose–response inhibition with variable slope, as implemented in GraphPad Prism (see Experimental section), provided the IC50 value for displacing the probe from nectin-4.
All measurements were conducted at 37 °C over 1200 s (interval of 37 s) using a Cytation 5 multimode microplate reader (BioTek Instruments, Software Gen 5) and black 96-well microplates (BRANDplates with F-bottom wells). Experiments were conducted at an excitation wavelength of 540 nm and an emission wavelength of 620 nm. The FA (r) was calculated by Gen 5 software from the measured parallel and perpendicular fluorescence intensities (I ∥ and I ⊥, respectively) according to eq using a G factor of 0.87 (preset value). r=I∥−G×I⊥/I∥+2G×I⊥ 1
All further data analyses were conducted with GraphPad Prism (version 10.4.1, GraphPad Software, San Diego, CA, USA). The assay mixture (100 μL) contained an aqueous solution (99 μL) and DMSO (1%, v/v, 1 μL).
For the competitive binding assay, fixed concentrations of probe 1a (1 nM) and recombinant human nectin-4 (20 nM) and 10 concentrations of nonlabeled peptide (e.g., […] prepared as serial 1:1 dilution) were used (two separate experiments, each performed in duplicate). The corresponding stock solutions of 1a (2.5 nM) and nectin-4 (50 nM) were prepared in HEPES buffer, while the stock solutions of the nonlabeled peptides were prepared in 5% DMSO/HEPES buffer. nectin-4 (40 μL) and 1a (40 μL) were added to the wells, and the competition was started by the addition of the nonlabeled peptides (20 μL). The FA values were averaged over the time period of 1200 s, and plots of FA = f([peptide]) were analyzed by nonlinear regression according to the model “[inhibitor] vs. response – Variable slope (four parameters)” as implemented in GraphPad Prism. […] Therefore, the lower FA plateau was constrained to the FA value of probe 1a in the absence of nectin-4 and the competitor, which was recorded in each experiment.

half-life ([1]; Blood half life fast [min]) [min]	half-life ([1]; Blood half life slow [min]) [min]	Percent fast [%] [2] [%]	body retention at 2 h p.i. [2] [%]	kidney uptake (SUVmean) at 2 h p.i. [2]	time of highest tumor uptake [2]	logD [3]	half-life [4] [min]	fold lower binding affinity compared to 1e ([5]; FA K d ratio) [fold]	Hill coefficient n ([5]; competitive binding curve, variable slope)	SMILES
1.24 ± 0.15	38.2 ± 2.68	85.43 ±1.50	70	25	≈ 6 min	-2.53	1040			CCCC[C@@H]1NC(=O)[C@@H]2CSCCC(=O)N3CN(CN(C3)C(=O)CCSC[C@H](NC(=O)CC[C@H](C(=O)O)N3CCN(CC(=O)O)CCN(CC(=O)O)CC3)C(=O)N3CCC[C@H]3C(=O)N[C@@H](Cc3cccc4ccccc34)C(=O)N[C@H](CC(=O)O)C(=O)N2)C(=O)CCSC[C@@H](C(N)=O)NC(=O)[C@H](Cc2c[nH]c3ccccc23)NC(=O)[C@@H]2C[C@@H](O)CN2C(=O)[C@@H]2CCCN2C(=O)[C@H]([C@@H](C)O)NC(=O)[C@H](CO)NC(=O)[C@H](Cc2c[nH]c3ccccc23)NC(=O)[C@H](CC(=O)O)NC(=O)[C@H](CCCCNC(=N)N)NC1=O [[^64Cu]Cu-3a, metal not drawn] (X1-CP[1Nal][dD]C[Nle][hArg]DWSTP[Hyp]WC-NH2; linker 1-5-15 via TATA)
1.21 ± 0.21	32.5 ± 3.08					-2.74	218			CSCC[C@@H]1NC(=O)[C@@H]2CSCCC(=O)N3CN(CN(C3)C(=O)CCSC[C@H](NC(=O)CC[C@H](C(=O)O)N3CCN(CC(=O)O)CCN(CC(=O)O)CC3)C(=O)N3CCC[C@H]3C(=O)N[C@@H](Cc3cccc4ccccc34)C(=O)N[C@H](CC(=O)O)C(=O)N2)C(=O)CCSC[C@@H](C(N)=O)NC(=O)[C@H](Cc2c[nH]c3ccccc23)NC(=O)[C@@H]2C[C@@H](O)CN2C(=O)[C@@H]2CCCN2C(=O)[C@H]([C@@H](C)O)NC(=O)[C@H](CO)NC(=O)[C@H](Cc2c[nH]c3ccccc23)NC(=O)[C@H](CC(=O)O)NC(=O)[C@H](CCCCNC(=N)N)NC1=O [[^64Cu]Cu-1e, metal not drawn]
						-2.51		34	1.07	C[C@@H](O)[C@@H]1NC(=O)[C@H](CO)NC(=O)[C@H](Cc2c[nH]c3ccccc23)NC(=O)[C@H](CC(=O)O)NC(=O)[C@H](CCCCNC(=N)N)NC(=O)[C@H](CC[S+](C)[O-])NC(=O)[C@@H]2CSCCC(=O)N3CN(CN(C3)C(=O)CCSC[C@H](NC(=O)CC[C@H](C(=O)O)N3CCN(CC(=O)O)CCN(CC(=O)O)CC3)C(=O)N3CCC[C@H]3C(=O)N[C@@H](Cc3cccc4ccccc34)C(=O)N[C@H](CC(=O)O)C(=O)N2)C(=O)CCSC[C@@H](C(N)=O)NC(=O)[C@H](Cc2c[nH]c3ccccc23)NC(=O)[C@@H]2C[C@@H](O)CN2C(=O)[C@@H]2CCCN2C1=O (stereo partly drawn) [compound 2] (X1-CP[1Nal][dD]C[Met(O)][hArg]DWSTP[Hyp]WC-NH2; linker 1-5-15 via TATA)
